The values below come from US12162901B2, “N-acetylated sialic acids and related sialosides” (priority 2016, dated 2024).

Data set [1] concerns the target T1, SpNanC (Streptococcus pneumoniae, UniProt A0A0H2UQE4). Briefly: HPLC-based kinetic study of SpNanC. The conditions noted are these: for kcat: SpNanC, apparent, MES buffer pH 6.5, 37° C., 10 min, spread and × 10^2 on wrapped line below. In kind it is biochemical. As for the experimental part: (§1) HPLC-based assays were carried out as described above for microtiter plate-based assays. The reactions were stopped by adding 40 μL of pre-chilled ethanol. The mixtures were then centrifuged and the supernatants were analyzed by Agilent 1290 Infinity HPLC system at 315 nm. […] A C18 reverse phase Rapid Resolution High Definition column (EclipsePlusC18 RRHD 1.8 μm, 2.1×50 mm, Agilent) was used for analyzing samples with Neu5Ac9NAcα2-3GalβpNP (2.1) or Neu5,9Ac2α2-6GalβpNP (2.20).
After stopping the reactions by adding 40 μL of pre-chilled ethanol, the mixtures were centrifuged and the supernatants were analyzed by the HPLC system as described above. Apparent kinetic parameters were obtained by varying substrate concentrations from 0.1-40 mM (0.1, 0.2, 0.4, 1, 2, 4, 10, 20, and 40 mM) and fitting the data (the average values of duplicate assay results) into the Michaelis-Menten equation using Grafit 5.0.

The target in data set [2] is T2, BiNanH2 (Bifidobacterium longum, UniProt A0ACD7UU12).
T2 sequence (A0ACD7UU12 1-394): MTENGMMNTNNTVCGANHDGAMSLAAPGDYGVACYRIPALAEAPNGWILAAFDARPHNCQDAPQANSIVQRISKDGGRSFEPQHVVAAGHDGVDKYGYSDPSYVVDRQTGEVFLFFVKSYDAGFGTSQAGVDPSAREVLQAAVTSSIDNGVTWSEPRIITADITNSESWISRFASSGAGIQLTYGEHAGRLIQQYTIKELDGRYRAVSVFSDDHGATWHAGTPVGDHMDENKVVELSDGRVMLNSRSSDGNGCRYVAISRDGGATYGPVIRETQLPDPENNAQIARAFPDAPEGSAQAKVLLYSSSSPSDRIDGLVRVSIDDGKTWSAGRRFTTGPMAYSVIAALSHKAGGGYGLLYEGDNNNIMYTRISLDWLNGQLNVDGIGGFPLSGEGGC
Briefly: HPLC-based kinetic study of BiNanH2. In kind it is biochemical, Bifidobacterium infantis. To be noted: for kcat: BiNanH2, apparent, NaOAc buffer pH 5.0, 37° C., 10 min, spread and × 10^2 on wrapped line below; for activity of BiNanH2 towards the substrate: kinetic study, HPLC. As for the experimental part: as §1
The reactions were stopped by adding 40 μL of pre-chilled ethanol. The mixtures were then centrifuged and the supernatants were analyzed by the HPLC system described above for HPLC-based assays. Apparent kinetic parameters were obtained by varying substrate concentrations from 0.1-40 mM (0.1, 0.2, 0.4, 1, 2, 4, 10, 20, and 40 mM) and fitting the data (the average values of duplicate assay results) into the Michaelis-Menten equation using Grafit 5.0.

For data set [3], the system named is A. ureafaciens sialidase. Put plainly: Sialidase substrate specificity of Leg glycosides (HPLC/capillary electrophoresis), A. ureafaciens sialidase. In kind it is biochemical, Arthrobacter ureafaciens. The conditions noted are these: pH 5.5.
Data set [4] deals with T2, BiNanH2. Put plainly: Sialidase substrate specificity of Leg glycosides (HPLC/capillary electrophoresis), BiNanH2. The class given is biochemical, Bifidobacterium infantis. The conditions noted are these: 37° C., 16 hs, pH 5.0.
In data set [5] the target is T1, SpNanC. Briefly: Sialidase substrate specificity of Leg glycosides (HPLC/capillary electrophoresis), SpNanC. The class given is biochemical. The conditions noted are these: 37° C., 16 hs, pH 6.5.
For data set [6], the target named is C. perfringens sialidase (CpNanH) (Clostridium perfringens, UniProt P10481). The class given is biochemical. The conditions noted are these: 37° C., 16 hs, pH 5.0.
Data set [7] has as its target T3, V. cholerae sialidase (Vibrio cholerae serotype O1, UniProt P0C6E9).
T3 construct: purchased Roche
Briefly: Sialidase substrate specificity of Leg glycosides (HPLC/capillary electrophoresis), V. cholerae sialidase. To be noted: pH 5.5. In kind it is biochemical.

The target in data set [8] is T4, SpNanA (Streptococcus pneumoniae, UniProt P62575).
T4 construct: made in house
Put plainly: Sialidase substrate specificity of Leg glycosides (HPLC/capillary electrophoresis), SpNanA. The class given is biochemical. To be noted: 37° C., 16 hs, pH 6.0.

The target of data set [9] is T5, human cytosolic sialidase hNEU2 (Homo sapiens, UniProt Q9Y3R4).
T5 construct: made in house
T5 sequence (Q9Y3R4 whole entry): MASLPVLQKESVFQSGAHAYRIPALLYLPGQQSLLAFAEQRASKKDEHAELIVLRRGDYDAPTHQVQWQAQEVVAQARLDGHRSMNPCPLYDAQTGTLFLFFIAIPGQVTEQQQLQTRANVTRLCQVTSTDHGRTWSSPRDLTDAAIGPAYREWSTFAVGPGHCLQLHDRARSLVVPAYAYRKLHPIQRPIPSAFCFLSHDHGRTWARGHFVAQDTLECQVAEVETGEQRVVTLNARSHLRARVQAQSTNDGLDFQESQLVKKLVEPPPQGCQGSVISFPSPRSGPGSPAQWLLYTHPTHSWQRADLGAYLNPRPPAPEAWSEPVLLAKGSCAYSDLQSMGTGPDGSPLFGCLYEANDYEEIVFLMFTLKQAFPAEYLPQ
Briefly: Sialidase substrate specificity of Leg glycosides (HPLC/capillary electrophoresis), hNEU2. The conditions noted are these: 37° C., 16 hs, pH 5.0. In kind it is biochemical.

For data set [10], the target named is T6, SpNanB (Streptococcus pneumoniae serotype 4, UniProt Q54727, E68D/K536E/K577E/N393D/S59P).
T6 construct: made in house
Briefly: Sialidase substrate specificity of Leg glycosides (HPLC/capillary electrophoresis), SpNanB. The class given is biochemical. The conditions noted are these: 37° C., 16 hs, pH 6.0.

Substrate in data set [11]: CC(=O)N[C@H]1[C@H]([C@H](O)[C@H](O)CO)O[C@@](O[C@H]2[C@@H](O)[C@@H](CO)O[C@@H](Oc3ccc([N+](=O)[O-])cc3)[C@@H]2O)(C(=O)O)C[C@@H]1O
Briefly: Kinetic studies for PmST1 α2-3-sialidase activity (HPLC). In kind it is biochemical, Pasteurella multocida. To be noted: other: PmST1, apparent, NaOAc buffer pH 5.5, CMP (0.4 mM), 37° C., 10 min. As for the experimental part: (§2) Kinetic studies for PmST1 were performed in duplicates at 37° C. for 10 min. […] The reactions were stopped by adding 20 μL of pre-chilled ethanol. The mixtures were then centrifuged and the supernatants were analyzed by the HPLC system described above for sialidase substrate specificity studies assays. Apparent kinetic parameters were obtained by varying substrate concentrations from 0.1-40 mM (0.1, 0.2, 0.4, 1, 2, 4, 10, 20, and 40 mM) and fitting the data (the average values of duplicate assay results) into the Michaelis-Menten equation using Grafit 5.0.

Substrate in data set [12]: CC(=O)N[C@@H]1C(O)C[C@](OC2C(O)[C@H](Oc3ccc([N+](=O)[O-])cc3)OC(CO)[C@@H]2O)(C(=O)O)OC1[C@H](NC(C)=O)[C@@H](C)O
The description is as above. The class given is biochemical, Pasteurella multocida. To be noted: other: PmST1, apparent, NaOAc buffer pH 5.5, CMP (0.4 mM), 37° C., 10 min. As to the method: as §2

As for `CC(=O)NC[C@@H](O)[C@@H](O)[C@@H]1O[C@@](O[C@H]2[C@@H](O)[C@@H](CO)O[C@@H](Oc3ccc([N+](=O)[O-])cc3)[C@@H]2O)(C(=O)O)C[C@H](O)[C@H]1NC(C)=O` [2.1, 4-Nitrophenyl O-(5,9-diacetamido-3,5,9-trideoxy-D-glycero-α-D-galacto-2-nonulopyranosylonic acid)-(2→3)-O-β-D-galactopyranoside], the catalytic constant (kcat) result was “(3.38 × 10^2 s^−1” in data set [1] and “(1.08 × 10^2 s^−1” in data set [2].

Turning to `C[C@@H](O)[C@@H](N=[N+]=[N-])C1O[C@@](OCC2O[C@@H](Oc3ccc([N+](=O)[O-])cc3)C(O)C(O)[C@H]2O)(C(=O)O)CC(O)[C@H]1N=[N+]=[N-]` (stereo partly drawn) [3-14, Leg5,7diN3α2-6GalβpNP], the “activity of A. ureafaciens sialidase for the compound” value in data set [3] is “did not show activity”. The “activity of BiNanH2 for the compound” value in [4] is “did not show activity”. In addition, the “activity of SpNanC for the compound” value in data set [5] is on record as “did not show activity”. Also, the “activity of C. perfringens sialidase (CpNanH) for the compound” value in data set [6] is recorded as “did not show activity”. Further, the “activity of V. cholerae sialidase for the compound” value in data set [7] is “did not show activity”. Also, the “activity of SpNanA for the compound” value in [8] is reported as “did not show activity”. The “activity of hNEU2 for the compound” value in data set [9] is given as “did not show activity”. Besides, the “activity of SpNanB for the compound” value in data set [10] was “did not show activity”.

In the case of `CC(=O)N[C@H]1[C@H]([C@H](O)[C@H](O)COC(C)=O)O[C@@](O[C@H]2[C@@H](O)[C@@H](CO)O[C@@H](Oc3ccc([N+](=O)[O-])cc3)[C@@H]2O)(C(=O)O)C[C@@H]1O` [2.19, Neu5,9Ac2α2-3GalβpNP], the “catalytic efficiency of SpNanC, fold higher than for 2.1 and 2.17” value in data set [1] (SpNanC kcat/KM ratio) is recorded as 2.2-2.3 fold. In addition, in [1], the kcat entry is on record as “(3.78 × 10^2 s^−1”. In addition, in data set [2], the “activity of BiNanH2 towards the substrate” value was “not high enough for obtaining apparent kinetics parameters”.

As to `CC(=O)NC1C(O)CC(OCC2OC(Oc3ccc([N+](=O)[O-])cc3)C(O)C(O)C2O)(C(=O)O)OC1C(O)C(O)COC(C)=O` (stereo not drawn) [2.20, Neu5,9Ac2α2-6GalβpNP], the “activity of BiNanH2 towards the substrate” value in data set [2] is given as “not high enough for obtaining apparent kinetics parameters”.

Take `CC(=O)N[C@@H]1C(O)C[C@](OCC2O[C@@H](Oc3ccc([N+](=O)[O-])cc3)C(O)C(O)[C@H]2O)(C(=O)O)OC1[C@H](NC(C)=O)[C@@H](C)O` (stereo partly drawn) [3-20, Leg5,7Ac2α2-6GalβpNP]: the “activity of A. ureafaciens sialidase for the compound” value in data set [3] is “did not show activity”. In addition, the “activity of BiNanH2 for the compound” value in [4] is reported as “did not show activity”. The “activity of SpNanC for the compound” value in data set [5] was “did not show activity”. In addition, the “activity of C. perfringens sialidase (CpNanH) for the compound” value in data set [6] is reported as “did not show activity”. For the same molecule, the “activity of V. cholerae sialidase for the compound” value in data set [7] is “did not show activity”. In addition, in data set [8], the “activity of SpNanA for the compound” value is reported as “did not show activity”. The “activity of hNEU2 for the compound” value in data set [9] is “did not show activity”. Also, in data set [10], the “activity of SpNanB for the compound” value was “did not show activity”.

As for `CC(=O)NC[C@@H](O)[C@@H](O)[C@@H]1O[C@@](OC[C@H]2O[C@@H](Oc3ccc([N+](=O)[O-])cc3)[C@H](O)[C@@H](O)[C@H]2O)(C(=O)O)C[C@H](O)[C@H]1NC(C)=O` [2.8, 4-Nitrophenyl O-(5,9-diacetamido-3,5,9-trideoxy-D-glycero-α-D-galacto-2-nonulopyranosylonic acid)-(2→6)-O-β-D-galactopyranoside], in data set [2], the kcat entry is “(8.07 × 10^2 s^−1”.

With `CC(=O)N[C@H]1[C@H]([C@H](O)[C@H](O)CO)O[C@@](OC[C@H]2O[C@@H](Oc3ccc([N+](=O)[O-])cc3)[C@H](O)[C@@H](O)[C@H]2O)(C(=O)O)C[C@@H]1O` [2.18, Neu5Acα2-6GalβpNP], the kcat entry in data set [2] was “(3.31 × 10^2 s^−1”.

Take `CC(=O)N[C@H]1[C@H]([C@H](O)[C@H](O)CO)O[C@@](O[C@H]2[C@@H](O)[C@@H](CO)O[C@@H](Oc3ccc([N+](=O)[O-])cc3)[C@@H]2O)(C(=O)O)C[C@@H]1O` [2.17, Neu5Acα2-3GalβpNP]: the catalytic constant (kcat) result is “(3.65 × 10^2 s^−1” in [1] and “(1.66 × 10^2 s^−1” in data set [2].

B1: PmST1 (α2-3-sialidase activity) (Pasteurella multocida) (protein)
chain: KTITLYLDPASLPALNQLMDFTQNNEDKTHPRIFGLSRFKIPDNIITQYQNIHFVELKDNRPTEALFTILDQYPGNIELNIHLNIAHSVQLIRPILAYRFKHLDRVSIQQLNLYDDGSMEYVDLEKEENKDISAEIKQAEKQLSHYLLTGKIKFDNPTIARYVWQSAFPVKYHFLSTDYFEKAEFLQPLKEYLAENYQKMDWTAYQQLTPEQQAFYLTLVGFNDEVKQSLEVQQAKFIFTGTTTWEGNTDVREYYAQQQLNLLNHFTQAEGDLFIGDHYKIYFKGHPRGGEINDYILNNAKNITNIPANISFEVLMMTGLLPDKVGGVASSLYFSLPKEKISHIIFTSNKQVKSKEDALNNPYVKVMRRLGIIDESQVIFWDSLKQL
With B1, in [11], the Km came to 4.73 ± 0.31 mM, the kcat was determined as 9.26 ± 0.185 s⁻¹ and the kcat/Km was 1950 M⁻¹ s⁻¹. Besides, in data set [12], the Km came to 17.38 ± 0.70 mM, the kcat came out at 1.16 ± 0.0217 s⁻¹ and the kcat/Km stood at 66.7 M⁻¹ s⁻¹.
